In ChEMBL document CHEMBL5241098, “Progress in the development of small molecular inhibitors of the Bruton's tyrosine kinase (BTK) as a promising cancer therapy” (Bioorg Med Chem, 2021):

Experiments:
[1] = molecular target: T1, Protein cereblon/Tyrosine-protein kinase BTK (Homo sapiens, UniProt Q06187+Q96SW2, C481S); assay: PROTAC activity at CRBN/BTK C481S mutant in human HBL1 cells assessed as decrease in BTK C481S level incubated for 36 hrs by Western blot analysis; assay type: cell-based
[2] = tested on: OCI-Ly7; assay: Growth inhibition of human OCILY7 cells; assay type: functional
[3] = molecular target: T2, Tyrosine-protein kinase BTK (Homo sapiens, UniProt Q06187); assay: Inhibition of BTK (unknown origin)
T2 sequence (Q06187 whole entry): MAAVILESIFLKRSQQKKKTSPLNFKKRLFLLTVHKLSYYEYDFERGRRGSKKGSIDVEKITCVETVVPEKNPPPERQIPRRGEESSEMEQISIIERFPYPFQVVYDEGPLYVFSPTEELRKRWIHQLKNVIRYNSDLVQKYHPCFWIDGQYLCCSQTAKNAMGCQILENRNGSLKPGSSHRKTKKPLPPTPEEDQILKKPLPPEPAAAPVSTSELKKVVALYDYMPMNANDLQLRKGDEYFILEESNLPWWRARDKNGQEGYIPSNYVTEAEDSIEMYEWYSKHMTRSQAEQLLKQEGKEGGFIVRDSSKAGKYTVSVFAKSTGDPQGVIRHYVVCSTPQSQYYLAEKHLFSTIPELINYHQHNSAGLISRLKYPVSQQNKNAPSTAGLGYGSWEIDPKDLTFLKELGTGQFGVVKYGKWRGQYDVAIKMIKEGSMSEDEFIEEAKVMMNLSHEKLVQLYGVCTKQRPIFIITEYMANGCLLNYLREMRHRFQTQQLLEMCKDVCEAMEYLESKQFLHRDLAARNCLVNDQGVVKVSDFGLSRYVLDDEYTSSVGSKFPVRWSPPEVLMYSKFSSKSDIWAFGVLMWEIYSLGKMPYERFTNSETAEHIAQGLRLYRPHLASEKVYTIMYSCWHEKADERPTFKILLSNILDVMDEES

[4] = molecular target: T2, Tyrosine-protein kinase BTK; assay: Inhibition of BTK (unknown origin) in the presence of ATP
[5] = molecular target: T2, Tyrosine-protein kinase BTK; assay: Competitive inhibition of recombinant human BTK incubated for 10 mins in the presence of ATP by mobility shift assay
[6] = tested on: A549; assay: Antiproliferative activity against human A549 cells assessed as inhibition of cell growth
[7] = Antiproliferative activity against human MINO cells assessed as inhibition of cell growth
[8] = tested on: OCI-Ly10; assay: Antiproliferative activity against human OCILY10 cells assessed as inhibition of cell growth
[9] = tested on: JeKo-1; assay: Antiproliferative activity against BTK knockout human JeKo-1 cells assessed as reduction in cell viability incubated for 72 hrs by CellTiter Glo luminescence assay; details: JeKo-1, 72 h
[10] = tested on: Maver1; assay: Antiproliferative activity against human MAVER-1 cells assessed as reduction in cell viability incubated for 72 hrs by CellTiter Glo luminescence assay; details: Maver1, 72 h
[11] = tested on: Z-138; assay: Antiproliferative activity against human Z138 cells assessed as reduction in cell viability incubated for 72 hrs by CellTiter Glo luminescence assay; details: Z-138, 72 h
[12] = molecular target: T3, Protein cereblon/Tyrosine-protein kinase BTK (Homo sapiens, UniProt Q06187+Q96SW2); assay: PROTAC activity at CRBN/BTK in human MINO cells assessed as decrease in BTK level by measuring maximal efficacy incubated for 24 hrs by Western blot analysis relative to control; assay type: cell-based
Target sequence in this assay (Q06187 2-659 limits assumed): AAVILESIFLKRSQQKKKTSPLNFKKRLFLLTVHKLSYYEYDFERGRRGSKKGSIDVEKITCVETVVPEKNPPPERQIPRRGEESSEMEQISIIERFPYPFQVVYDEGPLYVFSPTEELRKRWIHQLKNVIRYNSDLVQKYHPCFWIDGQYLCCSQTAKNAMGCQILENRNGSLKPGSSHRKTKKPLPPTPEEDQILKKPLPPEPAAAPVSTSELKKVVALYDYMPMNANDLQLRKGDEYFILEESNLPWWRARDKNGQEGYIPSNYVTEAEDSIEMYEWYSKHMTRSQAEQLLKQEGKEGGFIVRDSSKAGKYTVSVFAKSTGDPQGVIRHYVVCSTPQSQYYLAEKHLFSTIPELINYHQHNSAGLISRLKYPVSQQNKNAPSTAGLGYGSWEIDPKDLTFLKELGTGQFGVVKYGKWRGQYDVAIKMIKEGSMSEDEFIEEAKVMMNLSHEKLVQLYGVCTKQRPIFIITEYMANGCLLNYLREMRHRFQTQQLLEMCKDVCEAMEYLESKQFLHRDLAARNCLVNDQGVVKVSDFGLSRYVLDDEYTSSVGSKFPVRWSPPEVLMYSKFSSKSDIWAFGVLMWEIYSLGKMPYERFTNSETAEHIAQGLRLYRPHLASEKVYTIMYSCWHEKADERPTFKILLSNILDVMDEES
Target sequence in this assay (Q96SW2 whole entry partner): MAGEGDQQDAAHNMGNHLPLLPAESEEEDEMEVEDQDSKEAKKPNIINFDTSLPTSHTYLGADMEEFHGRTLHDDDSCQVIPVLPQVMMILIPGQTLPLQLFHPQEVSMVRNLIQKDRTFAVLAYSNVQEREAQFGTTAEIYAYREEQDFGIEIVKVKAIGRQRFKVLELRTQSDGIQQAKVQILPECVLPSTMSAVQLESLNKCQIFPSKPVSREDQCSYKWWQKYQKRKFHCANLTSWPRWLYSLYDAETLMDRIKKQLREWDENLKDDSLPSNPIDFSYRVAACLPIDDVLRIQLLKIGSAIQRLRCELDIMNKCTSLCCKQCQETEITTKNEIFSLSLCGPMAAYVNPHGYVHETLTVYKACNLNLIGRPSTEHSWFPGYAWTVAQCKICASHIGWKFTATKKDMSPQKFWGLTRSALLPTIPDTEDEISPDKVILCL

[13] = molecular target: T3, Protein cereblon/Tyrosine-protein kinase BTK; assay: PROTAC activity at CRBN/BTK in human MINO cells assessed as decrease in BTK level incubated for 24 hrs by Western blot analysis; assay type: cell-based
Target sequence in this assay (Q06187 whole entry): as the sequence (Q06187 whole entry) above
Target sequence in this assay (Q96SW2 whole entry): as the sequence (Q96SW2 whole entry partner) above

[14] = tested on: Ramos; assay: Antiproliferative activity against human Ramos cells assessed as reduction in cell viability incubated for 72 hrs by CCK-8 assay
[15] = tested on: NAMALVA; assay: Antiproliferative activity against human NAMALVA cells assessed as reduction in cell viability incubated for 72 hrs by CCK-8 assay
[16] = tested on: Raji; assay: Antiproliferative activity against human Raji cells assessed as reduction in cell viability incubated for 72 hrs by CCK-8 assay
[17] = molecular target: Tyrosine-protein kinase Lck (Homo sapiens, UniProt P06239); assay: Inhibition of LCK (unknown origin)
Tyrosine-protein kinase Lck, sequence (P06239 whole entry): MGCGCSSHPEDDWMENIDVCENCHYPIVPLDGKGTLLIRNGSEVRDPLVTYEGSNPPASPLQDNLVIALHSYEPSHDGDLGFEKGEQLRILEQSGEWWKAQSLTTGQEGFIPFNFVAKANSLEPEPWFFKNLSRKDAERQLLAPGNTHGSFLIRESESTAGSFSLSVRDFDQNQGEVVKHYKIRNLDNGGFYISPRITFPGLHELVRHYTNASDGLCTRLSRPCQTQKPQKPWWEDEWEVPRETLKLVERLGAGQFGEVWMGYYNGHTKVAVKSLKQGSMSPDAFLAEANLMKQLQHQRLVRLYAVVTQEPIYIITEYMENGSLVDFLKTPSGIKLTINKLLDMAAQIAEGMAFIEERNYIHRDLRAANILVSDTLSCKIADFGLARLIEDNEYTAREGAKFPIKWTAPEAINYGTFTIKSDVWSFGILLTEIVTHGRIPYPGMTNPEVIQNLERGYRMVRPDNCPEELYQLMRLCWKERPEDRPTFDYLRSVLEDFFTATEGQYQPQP

[18] = molecular target: Epidermal growth factor receptor (Homo sapiens, UniProt P00533); assay: Inhibition of EGFR (unknown origin)
Epidermal growth factor receptor, sequence (P00533 whole entry): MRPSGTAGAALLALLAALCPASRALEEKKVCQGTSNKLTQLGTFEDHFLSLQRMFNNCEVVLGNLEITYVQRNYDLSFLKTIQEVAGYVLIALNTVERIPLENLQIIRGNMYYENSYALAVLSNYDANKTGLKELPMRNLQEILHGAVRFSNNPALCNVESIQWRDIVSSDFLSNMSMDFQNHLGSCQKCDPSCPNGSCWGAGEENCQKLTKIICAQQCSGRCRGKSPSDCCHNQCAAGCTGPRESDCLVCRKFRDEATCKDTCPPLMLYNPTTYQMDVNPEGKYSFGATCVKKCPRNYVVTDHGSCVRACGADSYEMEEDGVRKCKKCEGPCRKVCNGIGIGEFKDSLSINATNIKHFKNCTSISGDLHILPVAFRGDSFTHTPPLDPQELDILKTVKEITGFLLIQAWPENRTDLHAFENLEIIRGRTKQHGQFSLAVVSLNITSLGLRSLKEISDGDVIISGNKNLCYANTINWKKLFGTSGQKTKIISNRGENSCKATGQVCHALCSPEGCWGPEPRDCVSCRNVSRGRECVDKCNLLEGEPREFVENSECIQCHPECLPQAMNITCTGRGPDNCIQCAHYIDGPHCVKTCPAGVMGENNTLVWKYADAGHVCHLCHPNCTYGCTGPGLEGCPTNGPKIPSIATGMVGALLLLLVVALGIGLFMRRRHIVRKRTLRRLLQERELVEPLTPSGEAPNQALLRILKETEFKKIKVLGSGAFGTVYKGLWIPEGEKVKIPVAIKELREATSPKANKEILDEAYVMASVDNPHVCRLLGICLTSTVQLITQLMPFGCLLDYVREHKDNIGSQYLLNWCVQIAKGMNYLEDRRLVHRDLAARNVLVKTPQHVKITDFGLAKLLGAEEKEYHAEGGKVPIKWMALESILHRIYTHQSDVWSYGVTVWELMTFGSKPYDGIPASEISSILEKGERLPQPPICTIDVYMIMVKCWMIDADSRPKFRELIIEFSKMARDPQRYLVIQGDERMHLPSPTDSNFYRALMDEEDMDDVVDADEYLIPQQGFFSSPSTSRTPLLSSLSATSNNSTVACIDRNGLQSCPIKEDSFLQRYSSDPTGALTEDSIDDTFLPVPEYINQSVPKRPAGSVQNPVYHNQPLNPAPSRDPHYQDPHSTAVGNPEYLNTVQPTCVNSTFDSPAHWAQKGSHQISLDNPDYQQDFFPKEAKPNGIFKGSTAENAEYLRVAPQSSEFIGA

[19] = tested on: U2932; assay: Growth inhibition of human U2932 cells; assay type: functional
[20] = tested on: Ramos; assay: Growth inhibition of human Ramos cells; assay type: functional
[21] = molecular target: T4, Tyrosine-protein kinase JAK3 (Homo sapiens, UniProt P52333); assay: Inhibition of JAK3 (unknown origin)
T4 sequence (P52333 whole entry): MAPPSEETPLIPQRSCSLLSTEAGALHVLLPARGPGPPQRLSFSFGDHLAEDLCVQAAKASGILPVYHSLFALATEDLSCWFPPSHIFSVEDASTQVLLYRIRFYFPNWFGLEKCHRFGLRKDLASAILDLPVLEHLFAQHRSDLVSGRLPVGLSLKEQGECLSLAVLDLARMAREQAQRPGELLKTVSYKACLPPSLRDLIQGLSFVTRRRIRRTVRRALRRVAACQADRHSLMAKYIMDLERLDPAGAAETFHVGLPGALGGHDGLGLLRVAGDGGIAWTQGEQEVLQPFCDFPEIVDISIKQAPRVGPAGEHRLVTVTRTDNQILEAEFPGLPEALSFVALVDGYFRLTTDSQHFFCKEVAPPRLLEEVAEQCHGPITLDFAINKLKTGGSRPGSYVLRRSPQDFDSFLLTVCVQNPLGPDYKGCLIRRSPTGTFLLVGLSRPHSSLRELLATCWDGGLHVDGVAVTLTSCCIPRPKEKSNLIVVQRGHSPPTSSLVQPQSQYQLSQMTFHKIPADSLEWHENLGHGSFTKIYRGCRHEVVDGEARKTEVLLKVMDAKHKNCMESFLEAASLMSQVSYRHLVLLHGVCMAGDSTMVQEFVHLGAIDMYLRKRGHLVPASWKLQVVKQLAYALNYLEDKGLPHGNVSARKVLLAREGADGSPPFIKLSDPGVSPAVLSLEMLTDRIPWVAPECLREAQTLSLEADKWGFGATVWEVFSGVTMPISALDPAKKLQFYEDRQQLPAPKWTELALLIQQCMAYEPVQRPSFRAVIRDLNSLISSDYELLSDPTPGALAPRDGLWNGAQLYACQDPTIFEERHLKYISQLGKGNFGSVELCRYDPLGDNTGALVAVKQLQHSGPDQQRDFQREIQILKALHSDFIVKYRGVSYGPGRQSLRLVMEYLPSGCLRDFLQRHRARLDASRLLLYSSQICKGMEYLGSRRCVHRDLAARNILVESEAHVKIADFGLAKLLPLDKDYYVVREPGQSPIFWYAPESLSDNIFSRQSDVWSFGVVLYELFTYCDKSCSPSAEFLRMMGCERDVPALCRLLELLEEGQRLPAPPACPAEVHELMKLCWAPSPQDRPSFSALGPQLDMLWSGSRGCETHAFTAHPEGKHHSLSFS

[22] = molecular target: T3, Protein cereblon/Tyrosine-protein kinase BTK; assay: PROTAC activity at CRBN/BTK in human NAMALVA cells assessed as decrease in BTK level incubated for 24 hrs by Western blot analysis; assay type: cell-based
Target sequence in this assay (Q06187 whole entry): as the sequence (Q06187 whole entry) above
Target sequence in this assay (Q96SW2 whole entry): as the sequence (Q96SW2 whole entry partner) above

[23] = molecular target: T3, Protein cereblon/Tyrosine-protein kinase BTK; assay: PROTAC activity at CRBN/BTK in human NAMALVA cells assessed as decrease in BTK level by measuring maximal efficacy incubated for 24 hrs by Western blot analysis relative to control; assay type: cell-based
Target sequence in this assay (Q06187 2-659 limits assumed): as the sequence (Q06187 2-659 limits assumed) above
Target sequence in this assay (Q96SW2 whole entry partner): as the sequence (Q96SW2 whole entry partner) above

[24] = molecular target: T2, Tyrosine-protein kinase BTK; assay: Inhibition of BTK (unknown origin) incubated for 40 mins in the presence of ATP by scintillation based radiometric protein kinase assay
[25] = Antiproliferative activity against human MINO cells assessed as reduction in cell viability incubated for 72 hrs by CellTiter Glo luminescence assay
[26] = Inhibition of CDK2/Cyclin E (unknown origin) in the presence of ATP; design: species or system Homo sapiens
[27] = molecular target: T5, Receptor-type tyrosine-protein kinase FLT3 (Homo sapiens, UniProt P36888); assay: Inhibition of FLT3 (unknown origin)
T5 sequence (P36888 whole entry): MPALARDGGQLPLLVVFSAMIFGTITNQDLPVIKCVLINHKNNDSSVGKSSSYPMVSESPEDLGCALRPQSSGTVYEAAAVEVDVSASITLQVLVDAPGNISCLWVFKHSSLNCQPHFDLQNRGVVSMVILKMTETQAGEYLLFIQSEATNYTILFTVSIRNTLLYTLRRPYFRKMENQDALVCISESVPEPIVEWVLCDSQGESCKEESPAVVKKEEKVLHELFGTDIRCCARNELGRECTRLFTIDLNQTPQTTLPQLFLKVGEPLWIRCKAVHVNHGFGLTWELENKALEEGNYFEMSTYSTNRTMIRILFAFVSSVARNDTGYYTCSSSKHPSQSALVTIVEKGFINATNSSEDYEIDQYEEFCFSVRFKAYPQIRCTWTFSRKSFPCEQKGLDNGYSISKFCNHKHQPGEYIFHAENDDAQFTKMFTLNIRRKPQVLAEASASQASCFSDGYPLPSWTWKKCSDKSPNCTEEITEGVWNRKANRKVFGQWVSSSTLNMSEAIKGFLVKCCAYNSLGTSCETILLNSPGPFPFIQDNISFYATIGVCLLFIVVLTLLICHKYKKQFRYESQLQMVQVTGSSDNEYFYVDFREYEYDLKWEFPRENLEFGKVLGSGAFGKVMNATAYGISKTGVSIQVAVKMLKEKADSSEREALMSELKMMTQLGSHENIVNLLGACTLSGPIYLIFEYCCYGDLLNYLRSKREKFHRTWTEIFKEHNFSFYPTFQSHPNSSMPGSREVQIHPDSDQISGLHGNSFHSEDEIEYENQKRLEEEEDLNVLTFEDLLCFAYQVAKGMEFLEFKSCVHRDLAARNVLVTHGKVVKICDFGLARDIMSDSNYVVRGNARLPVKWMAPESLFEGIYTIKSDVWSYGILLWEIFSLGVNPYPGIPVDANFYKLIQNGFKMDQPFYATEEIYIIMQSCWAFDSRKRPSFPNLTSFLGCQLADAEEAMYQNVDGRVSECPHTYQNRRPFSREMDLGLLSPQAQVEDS

[28] = molecular target: T1, Protein cereblon/Tyrosine-protein kinase BTK; assay: PROTAC activity at CRBN/BTK C481S mutant in human Ramos cells assessed as decrease in BTK C481S level incubated for 48 hrs by immunoblot analysis; assay type: cell-based
[29] = molecular target: E3 ubiquitin-protein ligase XIAP/Tyrosine-protein kinase BTK (Homo sapiens, UniProt P98170+Q06187); assay: PROTAC activity at IAP/BTK in human THP-1 cells assessed as reduction in BTK level incubated for 16 hrs by immunoblot analysis; assay type: cell-based
E3 ubiquitin-protein ligase XIAP/Tyrosine-protein kinase BTK, sequence (P98170 whole entry): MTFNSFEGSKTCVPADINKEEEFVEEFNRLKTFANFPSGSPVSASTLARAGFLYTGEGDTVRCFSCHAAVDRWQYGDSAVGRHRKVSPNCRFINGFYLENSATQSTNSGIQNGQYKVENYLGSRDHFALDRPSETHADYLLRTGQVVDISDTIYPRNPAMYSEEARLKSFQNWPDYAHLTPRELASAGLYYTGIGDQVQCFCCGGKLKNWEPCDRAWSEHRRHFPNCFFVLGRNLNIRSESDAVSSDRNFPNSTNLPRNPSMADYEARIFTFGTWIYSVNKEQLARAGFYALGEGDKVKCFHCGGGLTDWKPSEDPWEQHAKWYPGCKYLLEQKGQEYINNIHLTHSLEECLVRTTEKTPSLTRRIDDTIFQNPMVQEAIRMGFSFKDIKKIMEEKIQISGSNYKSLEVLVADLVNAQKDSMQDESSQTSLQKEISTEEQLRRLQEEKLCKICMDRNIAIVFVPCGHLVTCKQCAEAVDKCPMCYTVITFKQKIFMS
E3 ubiquitin-protein ligase XIAP/Tyrosine-protein kinase BTK, sequence (Q06187 whole entry): as the sequence (Q06187 whole entry) above

T1 sequence (Q06187 2-659 C481S limits assumed, stated change not applied): as the sequence (Q06187 2-659 limits assumed) above, with C480S counted along it
T1 sequence (Q96SW2 whole entry, stated change not applied): as the sequence (Q96SW2 whole entry partner) above

## Nc1ncnc2c1c(-c1ccc(Oc3ccccc3)cc1)nn2C1CCCN(C(=O)c2cn(CCOCCOCCOCCCc3cccc4c3CN(C3CCC(=O)NC3=O)C4=O)nn2)C1 (stereo not drawn)
[1]
  EC50: 29 nM

## C=CC(=O)NCC(=O)Nc1ncc(NC(=O)c2cc(C)cc(NC(=O)c3cccc(C)c3)c2)cn1
[2]
  GI50: 220 nM
[3]
  IC50: < 5 nM

## CN1CCN(c2ccc(Nc3nc(Nc4cccc(F)c4)c4ncn(CC5CC5)c4n3)cc2F)CC1
[4]
  IC50: 1810 nM

## C=C(Cl)C(=O)N1CCC(n2nc(-c3ccc(Oc4ccccc4)cc3)c3c(N)ncnc32)CC1
[5]
  IC50: 2.5 nM
[6]
  IC50: 3890 nM
[7]
  IC50: 560 nM
[8]
  IC50: 200 nM

## Nc1ncnc2c1c(-c1ccc(Oc3ccccc3)cc1)nn2Cc1cccc(NC(=O)CCl)c1
[9]
  IC50: 400 nM
[10]
  IC50: 400 nM
[11]
  IC50: 800 nM

## CN1CCN(c2ccc(Nc3nc(Nc4ccccc4)c4ncn(CC5CC5)c4n3)cc2)CC1
[4]
  IC50: 900 nM

## C#C/C(=C\C(C)(C)CCCCOCCOCCOCCOCCOc1cccc2c1C(=O)N(C1CCC(=O)NC1=O)C2=O)C(=O)N1CCCC(n2nc(-c3ccc(Oc4ccccc4)cc3)c3c(N)ncnc32)C1 (stereo not drawn)
[12]
  Emax: 90%
[13]
  EC50: 10 nM

## Nc1ncnc2c1c(-c1ccc(Oc3ccccc3)nc1)nn2C1CCCN(C(=O)CCl)C1 (stereo not drawn)
[9]
  IC50: 400 nM
[10]
  IC50: 400 nM

## Nc1ncnc2c1c(-c1ccc(Oc3ccccc3)cc1)nn2C1CCCN(C(=O)CCCCCCCOCCOCCOCCOCCOc2cccc3c2C(=O)N(C2CCC(=O)NC2=O)C3=O)C1 (stereo not drawn)
[12]
  Emax: 97%
[13]
  EC50: 2.2 nM

## CN1CCN(c2ccc(Nc3nc(Nc4cccc(F)c4)c4ncn(CC5CC5)c4n3)cc2)CC1
[4]
  IC50: 660 nM

## C=CC(=O)Nc1cccc(Nc2nc(Nc3ccc(Cn4cc(C)nc4CC)cc3)ncc2F)c1
[14]
  IC50: 9250 nM
[15]
  IC50: 4950 nM
[16]
  IC50: 4370 nM

## Nc1cccc(Cn2nc(-c3ccc(Oc4ccccc4)cc3)c3c(N)ncnc32)c1
[9]
  IC50: 11200 nM
[10]
  IC50: 16800 nM
[11]
  IC50: 14200 nM

## O=C(c1ccc(Oc2ccccc2)cc1Cl)c1c[nH]c2ncnc(NC3CC[C@@H](CO)OC3)c12 (stereo partly drawn)
[17]
  IC50: 3.9 nM

## C=CC(=O)N1CCc2ccc(N3C(=O)CCc4cnc5ccc(-c6cnn(C)c6)cc5c43)cc21
[18]
  IC50: 4310 nM
[19]
  GI50: 200 nM
[20]
  GI50: 370 nM
[21]
  IC50: 5180 nM
[3]
  IC50: 6.59 nM

## Nc1ncnc2c1c(-c1ccc(Oc3ccccc3)cc1)nn2C1CCN(CCOCCOCC(=O)Nc2ccc3c(c2)C(=O)N(C2CCC(=O)NC2=O)C3=O)CC1 (stereo not drawn)
[22]
  EC50: 6.2 nM
[23]
  Emax: > 99%

## Nc1ncnc2c1c(-c1ccc(Oc3ccccc3)cc1)nn2Cc1ccccc1F
[9]
  IC50: 32900 nM
[24]
  IC50: 39 nM
[10]
  IC50: 34300 nM
[11]
  IC50: 43700 nM
[25]
  IC50: 11100 nM

## CN1CCN(c2ccc(Nc3nc(Nc4ccc(F)c(F)c4)c4ncn(CC5CC5)c4n3)cc2)CC1
[26]
  IC50: 18500 nM

## Cc1cnc(-c2ccc(-c3ccc(NC(=O)Nc4cccc(C(F)(F)F)c4)cc3F)c3c2C(=O)NC3)[nH]1
[27]
  IC50: 80 nM

## Nc1ncnc2c1c(-c1ccc(Oc3ccccc3)cc1)nn2[C@@H]1CCCN(C(=O)c2cn(CCOCCOCCOCCNc3cccc4c3C(=O)N(C3CCC(=O)NC3=O)C4=O)nn2)C1 (stereo partly drawn)
[28]
  EC50: 30 nM

## CN[C@H](C)C(=O)N[C@@H](C(=O)N1C[C@@H](NC(=O)COCCOCCOCCOCCN2CCN(CCCC(=O)N3CCCC(n4nc(-c5ccc(Oc6ccccc6)cc5)c5c(N)ncnc54)C3)CC2)C[C@H]1C(=O)N[C@@H]1CCCc2ccccc21)C1CCCCC1 (stereo partly drawn)
[29]
  EC50: 200 nM

## C=CC(=O)Nc1cccc(Nc2nc(Nc3ccc(Cn4cc(C)nc4CC)cc3)ncc2Cl)c1
[14]
  IC50: 10800 nM
[15]
  IC50: 4900 nM
[16]
  IC50: 7980 nM

## Nc1ncnc2c1c(-c1ccc(Oc3ccccc3)cc1)nn2C1CCCN(C(=O)/C=C/CCCCCOCCOCCOCCOCCOc2cccc3c2C(=O)N(C2CCC(=O)NC2=O)C3=O)C1 (stereo not drawn)
[12]
  Emax: 90%
[13]
  EC50: 10 nM

## CN1CCN(c2ccc(Nc3nc(Nc4ccc(F)cc4)c4ncn(CC5CC5)c4n3)cc2)CC1
[4]
  IC50: 1300 nM

## C=CC(=O)Nc1cccc(Cn2nc(-c3ccc(Oc4ccccc4)cc3)c3c(N)ncnc32)c1
[9]
  IC50: 1300 nM
[24]
  IC50: 50 nM
[10]
  IC50: 2600 nM
[11]
  IC50: 2800 nM
[25]
  IC50: 1300 nM
